Test results from article PMC6917776, “Discovery of a chemical probe for PRDM9” (Nature Communications, 2019).
Where two headings read alike, the source gives them in different places.

Test: CelltiterGlo viability cell assay
Type: cell-based
Conditions: human; for viability at 3 day, 9.5 µM / viability at 3 day, 30 µM / viability at 6 day, 0.01 µM / viability at 6 day, 0.03 µM / viability at 6 day, 0.1 µM: SKMM2 cells (multiple myeloma line); for viability at 3 day, 0.01 µM / viability at 3 day, 0.03 µM: SKMM2 cells
Summary of the method: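 Luminescent ATP-based viability (CelltiterGlo) was measured after 3 or 6 days of treatment at increasing concentrations from 0.01 μM up to 30 μM, with values expressed relative to DMSO-treated cells.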

[1] = RPMI-8226 multiple myeloma cells, 8226, 3 day, read-out: viability Replicate 1
[2] = RPMI-8226 multiple myeloma cells, 8226, 3 day, read-out: viability Replicate 2
[3] = RPMI-8226 multiple myeloma cells, 8226, 3 day, read-out: viability Replicate 3
[4] = RPMI-8226 multiple myeloma cells, 8226, 3 day, read-out: viability Average
[5] = RPMI-8226 multiple myeloma cells, 8226, 6 day, read-out: viability Average
[6] = RPMI-8226 multiple myeloma cells, 8226, 6 day, read-out: viability Replicate 1
[7] = RPMI-8226 multiple myeloma cells, 8226, 6 day, read-out: viability Replicate 2
[8] = RPMI-8226 multiple myeloma cells, 8226, 6 day, read-out: viability Replicate 3
[9] = SKMM2, 3 day, read-out: viability Average
[10] = SKMM2, 3 day, read-out: viability Replicate 1
[11] = SKMM2, 3 day, read-out: viability Replicate 2
[12] = SKMM2, 3 day, read-out: viability Replicate 3
[13] = SKMM2, 6 day, read-out: viability Average
[14] = SKMM2, 6 day, read-out: viability Replicate 1
[15] = SKMM2, 6 day, read-out: viability Replicate 2
[16] = SKMM2, 6 day, read-out: viability Replicate 3
[17] = SKMM2 multiple myeloma cells, SKMM2, 3 day, read-out: viability Average
[18] = SKMM2 multiple myeloma cells, SKMM2, 3 day, read-out: viability Replicate 1
[19] = SKMM2 multiple myeloma cells, SKMM2, 3 day, read-out: viability Replicate 2
[20] = SKMM2 multiple myeloma cells, SKMM2, 3 day, read-out: viability Replicate 3
[21] = SKMM2 multiple myeloma cells, SKMM2, 6 day, read-out: viability Average
[22] = SKMM2 multiple myeloma cells, SKMM2, 6 day, read-out: viability Replicate 1
[23] = SKMM2 multiple myeloma cells, SKMM2, 6 day, read-out: viability Replicate 2
[24] = SKMM2 multiple myeloma cells, SKMM2, 6 day, read-out: viability Replicate 3

COc1cc(OC)cc(-c2noc(N3CCN(C)C4(CCN(c5ccnc(C)c5)CC4)C3)n2)c1 [MRK-740]
viability at 3 day, 0.3 µM [1]: 101%
viability at 3 day, 0.3 µM [2]: 101%
viability at 3 day, 0.3 µM [3]: 104%
viability at 3 day, 1 µM [4]: 104%
viability at 3 day, 1 µM [1]: 104%
viability at 3 day, 1 µM [2]: 102%
viability at 3 day, 1 µM [3]: 105%
viability at 3 day, 3 µM [4]: 106%
viability at 3 day, 3 µM [1]: 106%
viability at 3 day, 3 µM [2]: 105%
viability at 3 day, 3 µM [3]: 107%
viability at 6 day, 0.3 µM [5]: 98.9%
viability at 6 day, 0.3 µM [6]: 97.6%
viability at 6 day, 0.3 µM [7]: 98.6%
viability at 6 day, 0.3 µM [8]: 101%
viability at 6 day, 1 µM [5]: 97.3%
viability at 6 day, 1 µM [6]: 95%
viability at 6 day, 1 µM [7]: 99.7%
viability at 6 day, 1 µM [8]: 97.2%
viability at 6 day, 3 µM [5]: 92.6%
viability at 6 day, 3 µM [6]: 89.2%
viability at 6 day, 3 µM [7]: 96.8%
viability at 6 day, 3 µM [8]: 91.7%
viability at 6 day, 9.5 µM [5]: 82.7%
viability at 6 day, 9.5 µM [6]: 77%
viability at 6 day, 9.5 µM [7]: 85.6%
viability at 6 day, 9.5 µM [8]: 85.5%
viability at 6 day, 30 µM [5]: 70.7%
viability at 6 day, 30 µM [6]: 82%
viability at 6 day, 30 µM [7]: 56.4%
viability at 6 day, 30 µM [8]: 73.5%
viability at 3 day, 9.5 µM [9]: 93.2%
viability at 3 day, 9.5 µM [10]: 95.7%
viability at 3 day, 9.5 µM [11]: 89.2%
viability at 3 day, 9.5 µM [12]: 94.7%
viability at 3 day, 30 µM [9]: 67%
viability at 3 day, 30 µM [10]: 70.4%
viability at 3 day, 30 µM [11]: 59%
viability at 3 day, 30 µM [12]: 71.7%
viability at 6 day, 0.01 µM [13]: 99.7%
viability at 6 day, 0.01 µM [14]: 96.8%
viability at 6 day, 0.01 µM [15]: 103%
viability at 6 day, 0.01 µM [16]: 99.2%
viability at 6 day, 0.03 µM [13]: 98.1%
viability at 6 day, 0.03 µM [14]: 90.3%
viability at 6 day, 0.03 µM [15]: 105%
viability at 6 day, 0.03 µM [16]: 98.8%
viability at 6 day, 0.1 µM [13]: 96.7%
viability at 6 day, 0.1 µM [14]: 86.5%
viability at 6 day, 0.1 µM [15]: 107%
viability at 6 day, 0.1 µM [16]: 96.8%
viability at 3 day, 0.01 µM [9]: 101%
viability at 3 day, 0.01 µM [10]: 101%
viability at 3 day, 0.01 µM [11]: 99.6%
viability at 3 day, 0.01 µM [12]: 102%
viability at 3 day, 0.03 µM [9]: 101%
viability at 3 day, 0.03 µM [10]: 99.8%
viability at 3 day, 0.03 µM [11]: 99.2%
viability at 3 day, 0.03 µM [12]: 103%
viability at 3 day, 0.1 µM [17]: 103%
viability at 3 day, 0.1 µM [18]: 102%
viability at 3 day, 0.1 µM [19]: 100%
viability at 3 day, 0.1 µM [20]: 105%
viability at 3 day, 0.3 µM [17]: 101%
viability at 3 day, 0.3 µM [18]: 101%
viability at 3 day, 0.3 µM [19]: 98.7%
viability at 3 day, 0.3 µM [20]: 103%
viability at 3 day, 1 µM [17]: 101%
viability at 3 day, 1 µM [18]: 99.9%
viability at 3 day, 1 µM [19]: 99.6%
viability at 3 day, 1 µM [20]: 104%
viability at 3 day, 3 µM [17]: 99.8%
viability at 3 day, 3 µM [18]: 97.6%
viability at 3 day, 3 µM [19]: 98.3%
viability at 3 day, 3 µM [20]: 104%
viability at 6 day, 0.3 µM [21]: 98.1%
viability at 6 day, 0.3 µM [22]: 88.2%
viability at 6 day, 0.3 µM [23]: 106%
viability at 6 day, 0.3 µM [24]: 100%
viability at 6 day, 1 µM [21]: 96.5%
viability at 6 day, 1 µM [22]: 88%
viability at 6 day, 1 µM [23]: 105%
viability at 6 day, 1 µM [24]: 96.3%
viability at 6 day, 3 µM [21]: 96.8%
viability at 6 day, 3 µM [22]: 85.2%
viability at 6 day, 3 µM [23]: 105%
viability at 6 day, 3 µM [24]: 100%
viability at 6 day, 9.5 µM [21]: 94.5%
viability at 6 day, 9.5 µM [22]: 83.8%
viability at 6 day, 9.5 µM [23]: 102%
viability at 6 day, 9.5 µM [24]: 97.7%
viability at 6 day, 30 µM [21]: 71.5%
viability at 6 day, 30 µM [22]: 71.4%
viability at 6 day, 30 µM [23]: 66%
viability at 6 day, 30 µM [24]: 77.2%
